Assay results published in PMC4925669, “Phytochemicals Mediate the Expression and Activity of OCTN2 as Activators of the PPARγ/RXRα Pathway” (Frontiers in Pharmacology, 2016).

Target: T1, PPARγ (Homo sapiens, UniProt P37231)
T1 construct: gene PPARG; pcDNA3.1-PPARγ; with RXRα
T1 sequence (P37231 1-505): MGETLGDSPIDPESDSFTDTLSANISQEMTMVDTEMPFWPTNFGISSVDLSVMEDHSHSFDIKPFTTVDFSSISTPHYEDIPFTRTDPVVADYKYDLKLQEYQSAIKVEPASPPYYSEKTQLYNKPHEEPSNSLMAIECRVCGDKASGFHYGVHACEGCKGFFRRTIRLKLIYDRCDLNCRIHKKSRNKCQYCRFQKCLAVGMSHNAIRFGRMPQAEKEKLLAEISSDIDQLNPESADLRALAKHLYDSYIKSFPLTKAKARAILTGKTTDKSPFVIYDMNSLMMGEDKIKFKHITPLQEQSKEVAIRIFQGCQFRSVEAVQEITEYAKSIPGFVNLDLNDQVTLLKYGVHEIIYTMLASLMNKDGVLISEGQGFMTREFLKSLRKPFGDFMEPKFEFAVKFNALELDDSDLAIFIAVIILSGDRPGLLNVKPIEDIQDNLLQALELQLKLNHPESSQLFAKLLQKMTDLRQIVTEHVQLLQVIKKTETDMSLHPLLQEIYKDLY
T1 sequence (P19793 1-462 partner): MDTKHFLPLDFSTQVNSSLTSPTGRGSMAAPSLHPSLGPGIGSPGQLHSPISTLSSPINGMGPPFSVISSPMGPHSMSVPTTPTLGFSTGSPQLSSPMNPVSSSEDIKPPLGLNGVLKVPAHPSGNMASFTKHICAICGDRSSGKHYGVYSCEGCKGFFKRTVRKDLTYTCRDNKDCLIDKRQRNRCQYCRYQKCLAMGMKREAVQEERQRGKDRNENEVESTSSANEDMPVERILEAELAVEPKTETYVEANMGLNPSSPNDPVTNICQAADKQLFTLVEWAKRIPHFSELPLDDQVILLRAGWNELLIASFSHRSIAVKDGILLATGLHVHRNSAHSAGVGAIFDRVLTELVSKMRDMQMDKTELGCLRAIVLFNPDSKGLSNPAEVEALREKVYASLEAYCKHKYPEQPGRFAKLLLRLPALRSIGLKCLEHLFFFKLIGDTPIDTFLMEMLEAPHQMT
Test: PPRE/OCTN2 dual-luciferase transactivation assay in COS-7 cells transfected with PPARγ/RXRα, blocked by GW9662
Type: cell-based

**Q.** Which “Relative RFU fold change (% of blank)” value does the source give for O=c1c(O)c(-c2ccc(O)cc2)oc2cc(O)cc(O)c12 [Kaempferol] here?
**A.** 189.89 ± 5.98 % of blank
